The source of these data is US12649732B2, “Polymorphs of (R)-N-(5-(5-isopropyl-1,2,4-oxadiazol-3-yl)-2,3-dihydro-1H-inden-1-yl)-2-methyl-2H-tetrazole-5-carboxamide” (Cytokinetics, Inc., priority 2019, dated 2026).

Holding throughout (type): physicochemical
Data set [1] in a line: Competitive slurry experiments between Form I and Form II. The protocol:
Competitive slurry experiments between Form I and Form II in different solvents were conducted. Form I was suspended in the selected solvents at both 50° C. and 5° C. and stirred for a minimum of 1 hour before filtration to create a saturated solution. Form I (ca. 10 mg) and Form II (ca. 10 mg) were combined in a HPLC vial. Each sample was treated with 0.5 ml of the selected saturated solution. The samples were stirred at the selected temperature for 6 days. Solids obtained were filtered and dried under suction for a few minutes prior to characterization. Samples were slightly wet during XRPD analysis.

Data set [2] in a line: Dynamic Vapor Sorption (DVS). To be noted: 0-90% RH range, 25° C. As for the experimental part: DVS data were obtained using a SMS DVS Intrinsic moisture sorption analyzer, controlled by DVS Intrinsic Control software. The sample temperature was maintained at 25° C. by the instrument controls. The humidity was controlled by mixing streams of dry and wet nitrogen, with a total flow rate of 200 ml/min. The relative humidity was measured by a calibrated Rotronic probe (dynamic range of 1.0-100% RH), located near the sample. The weight change, (mass relaxation) of the sample as a function of % RH was constantly monitored by a microbalance (accuracy ±0.005 mg).
Typically, 5-30 mg of sample was placed in a tared mesh stainless steel basket under ambient conditions. The sample was loaded and unloaded at 40% RH and 25° C. (typical room conditions). A moisture sorption isotherm was performed as outlined below (2 scans per complete cycle). The standard isotherm was performed at 25° C. at 10% RH intervals over a 0-90% RH range. Typically, a double cycle (4 scans) was carried out. Data analysis was carried out within Microsoft Excel using the DVS Analysis Suite.

The nature of data set [3]: Stability study: XRPD after storage for 7 days. The protocol: Polymorphic Form I of (R)—N-(5-(5-isopropyl-1,2,4-oxadiazol-3-yl)-2,3-dihydro-1H-inden-1-yl)-2-methyl-2H-tetrazole-5-carboxamide was analyzed by XRPD, DSC, TGA, and DVS. […] As shown in the TGA graph, no weight loss prior to degradation, which starts at about 230° C., was observed. […] Chemical stability study of Form I was also performed. XRPD patterns were measured after storage of samples of Form I for 7 days at 40° C./75% RH and 25° C./97% RH.
Polymorphic Form I of (R)—N-(5-(5-isopropyl-1,2,4-oxadiazol-3-yl)-2,3-dihydro-1H-inden-1-yl)-2-methyl-2H-tetrazole-5-carboxamide (500 mg) was suspended in n-propyl acetate (50 vol) and stirred at 50° C. After 10 minutes, a clear solution was obtained. The solvent was removed under reduced pressure (100 ml round-bottom flask). The solid obtained was analyzed by XRPD and determined as a mixture of Form I and Form II. The solid was suspended in n-propyl acetate (40 vol) and stirred at 50° C. After 10 minutes, a clear solution was obtained. The solvent was removed under reduced pressure in a larger flask (250 ml round-bottom flask). The resulting solid was analyzed by XRPD, DSC, TGA, and GVS and determined as Form II. […] As shown in the DSC graph (sample heated at 10° C./min), an endotherm onset at about 133° C., an exotherm onset at about 135° C., and an endotherm onset at about 152° C. were observed. As shown in the TGA graph, a weight loss of about 1.1% between about 83° C. and about 160° C. prior to degradation was observed. […] Chemical stability study of Form II was also performed. XRPD patterns were measured after storage of samples of Form II for 7 days at 40° C./75% RH and 25° C./97% RH.

Data set [4] is described as follows: Polymorph screening (isothermal maturation, liquid assisted grinding, temperature cycling maturation). The protocol: Polymorphic Form I of (R)—N-(5-(5-isopropyl-1,2,4-oxadiazol-3-yl)-2,3-dihydro-1H-inden-1-yl)-2-methyl-2H-tetrazole-5-carboxamide (ca. 2 g) was suspended in MeCN:H2O (90 vol) and stirred at 50° C. for 40 minutes. The clear solution was filtered and flash frozen in a dry ice/acetone bath and placed for lyophilisation. The solid isolated was analyzed by XRPD and determined to be poorly crystalline Form I.
Poorly crystalline Form I (ca. 15 mg) was dispensed into HPLC vials. Solvent was added (10 vol) and the samples were shaken/stirred at 50° C. After 6 days, suspensions were filtered through a Millipore filter plate and dried under suction for 30 minutes prior to XPRD analysis.
Polymorphic Form I of (R)—N-(5-(5-isopropyl-1,2,4-oxadiazol-3-yl)-2,3-dihydro-1H-inden-1-yl)-2-methyl-2H-tetrazole-5-carboxamide was dispensed into HPLC vials and two stainless steel grinding balls (3 mm diameter) added. Solvent was added (10 μl) and the samples were subjected to grinding on a Fritsch planetary mill (500 rpm, 2 hour duration). Solids obtained post grinding were analyzed by XRPD. As shown below in Table 5, Form I was obtained from all of the experiments.
Polymorphic Form I of (R)—N-(5-(5-isopropyl-1,2,4-oxadiazol-3-yl)-2,3-dihydro-1H-inden-1-yl)-2-methyl-2H-tetrazole-5-carboxamide (20 mg) was dispensed into HPLC vials. The selected solvent was added (5 vol) to each sample then placed for maturation (RT/50° C., cycled with 4 hours at each temperature). After 2 days, the samples were removed from the maturation chamber. Suspensions were filtered through a Millipore plate and dried under suction for 20 minutes prior to XRPD analysis. Solutions obtained were treated with increasing aliquots of anti-solvent until a suspension was obtained or maximum of 5 eq. had been added. Samples were shaken at 25° C. for 30 minutes. Suspensions obtained after shaking were filtered through a Millipore plate and dried under suction for 20 minutes prior to XRPD analysis. Solutions and samples containing a small amount of solid were shaken at 25° C. overnight with any solutions obtained allowed to evaporate at RT. […]

`CC(C)c1nc(-c2ccc3c(c2)CC[C@H]3NC(=O)c2nnn(C)n2)no1` [Form I and Form II, (R)—N-(5-(5-isopropyl-1,2,4-oxadiazol-3-yl)-2,3-dihydro-1H-inden-1-yl)-2-methyl-2H-tetrazole-5-carboxamide]: the “XRPD analysis (form after slurry)” value in data set [1] (Sample 01, MeCN, 5 °C, 6 days) was “Form 1”; in data set [1] (Sample 02, n-propyl acetate, 5 °C, 6 days), “Form 1”; in data set [1] (Sample 03, MEK, 5 °C, 6 days), “Form 1”; in data set [1] (Sample 04, H2O:MeCN (25:75), 5 °C, 6 days), “Form 1”; in data set [1] (Sample 05, H2O:MeCN (75:25), 5 °C, 6 days), “Form 1”; in data set [1] (Sample 06, MeCN, 50 °C, 6 days) it was “Form I”. In addition, the “XRPD analysis (form after slurry)” value in data set [1] (Sample 07, n-propyl acetate, 50 °C, 6 days) is “Form I”; in data set [1] (Sample 09*, H2O:MeCN (25:75), 50 °C, 6 days, also treated with neat solvent), “Form I”; in data set [1] (Sample 10, H2O:MeCN (75:25), 50 °C, 6 days), “Form I”; in data set [1] (Sample 11, MEK, 50 °C, 6 days (repeat of 08)), “Form I”; in data set [1] (Sample 12, H2O:MeCN (25:75), 50 °C, 6 days (repeat of 09)) it was “Form I”.

As for `CC(C)c1nc(-c2ccc3c(c2)CC[C@H]3NC(=O)c2nnn(C)n2)no1` [Form I, (R)—N-(5-(5-isopropyl-1,2,4-oxadiazol-3-yl)-2,3-dihydro-1H-inden-1-yl)-2-methyl-2H-tetrazole-5-carboxamide], the “moisture uptake as determined by DVS” value in data set [2] is reported as 0.36 % w/w. Also, the “changes in XRPD patterns after storage” value in data set [3] (7 days at 25° C./97% RH) and in data set [3] (7 days at 40° C./75% RH) was “No significant changes” each time. In addition, the “relative stability of form” value in data set [4] (isothermal maturation, 50° C., 6 days, various solvents) was “most stable form”; in data set [4] (liquid assisted grinding, 500 rpm, 2 hour, various solvents) it was “most stable form”; in data set [4] (temperature cycling maturation RT/50° C., 2 days, and anti-solvent screen) it was “most stable form”.

Regarding `CC(C)c1nc(-c2ccc3c(c2)CC[C@H]3NC(=O)c2nnn(C)n2)no1` [Form II, (R)—N-(5-(5-isopropyl-1,2,4-oxadiazol-3-yl)-2,3-dihydro-1H-inden-1-yl)-2-methyl-2H-tetrazole-5-carboxamide], the “moisture uptake as determined by DVS” value in data set [2] was 0.24 % w/w. The “changes in XRPD patterns after storage” value in data set [3] (7 days at 25° C./97% RH) and in data set [3] (7 days at 40° C./75% RH) was “No significant changes” throughout.
